US10501479B2, “Benzenesulfonyl-asymmetric ureas and medical uses thereof” (HELSINN HEALTHCARE SA, priority 2016, dated 2019)

Legend:
[1] = biological target: T1, GHSR-1a (HEK293/GHSR1a cell line) (Homo sapiens, UniProt Q92847); test: Ghrelin antagonist potency (IC50) with calcium FLIPR assay, ghrelin 10 nM; type: cell-based; conditions: HEK293/GHSR1a, ghrelin 10 nM, read-out: Activity IC50 (ghrelin antagonist potency)
T1 construct: expressed in transfected cells; host or cells: HEK293/GHSR1a cell line
In short: (§1)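 In this assay, compound alone assesses agonism, while compound co-added with ghrelin at 10 nM assesses antagonism. In both modes the calcium-dye signal is tracked for 2 min from t=20 sec.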

[2] = biological target: T1, GHSR-1a (HEK293/GHSR1a cell line); test: Ghrelin agonist potency (EC50) with calcium FLIPR assay; type: cell-based; conditions: HEK293/GHSR1a, read-out: Activity EC50/EMax: EC50 (ghrelin agonist potency)
In short: as §1

[3] = Metabolic stability in human liver microsomes; type: in vitro ADME
In short: (§2)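 Loss of parent over time in microsomal incubations at 37 °C with NADPH regeneration, sampled up to 90 min and read by LC-MS/MS.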

[4] = biological target: T2, recombinant human ghrelin receptor (HEK293/GRLN) (Homo sapiens, UniProt Q92847); test: Ghrelin inverse agonist potency (EC50) with IP-1 (IP-One HTRF) assay; type: cell-based; conditions: IP-1 assay, HEK293/GRLN; read-out: Activity EC50 (ghrelin inverse agonist potency)
T2 construct: expressed in transfected cells
In short: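 IP-1 accumulation was measured by HTRF (IP1-d2/Tb-cryptate, 620/665 nm read after 1 hour at room temperature) following 1 hour of compound treatment at 37° C. Cells were HEK293 stably expressing human ghrelin receptor, plated a day earlier on Matrigel. Inverse agonist potency was reported as EC50.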

[5] = Metabolic stability in mouse liver microsomes; type: in vitro ADME
In short: as §2

T2 sequence (Q92847 whole entry): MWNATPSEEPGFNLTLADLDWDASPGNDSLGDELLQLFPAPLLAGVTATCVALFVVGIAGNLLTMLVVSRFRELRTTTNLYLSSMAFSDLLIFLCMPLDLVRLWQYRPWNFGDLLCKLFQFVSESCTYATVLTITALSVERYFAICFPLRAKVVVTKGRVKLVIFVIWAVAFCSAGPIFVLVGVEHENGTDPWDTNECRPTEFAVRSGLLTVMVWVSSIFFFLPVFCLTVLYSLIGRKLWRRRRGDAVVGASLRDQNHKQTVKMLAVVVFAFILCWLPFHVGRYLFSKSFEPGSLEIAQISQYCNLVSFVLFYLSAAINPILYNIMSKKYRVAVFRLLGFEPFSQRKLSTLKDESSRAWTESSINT
T1 sequence (Q92847 whole entry): as above

| Compound | IC50 [1] [µM] | EC50 [2] [µM] | Metabolic Stability Study H = human [3] [µL/min/mg] | EC50 [4] [µM] | Metabolic Stability Study M = mouse [5] [µL/min/mg] |
| --- | --- | --- | --- | --- | --- |
| CC(NC(=O)Nc1ccc(S(=O)(=O)Nc2ccc3c(c2)CN(C)C3)cc1)c1ccccc1 (stereo not drawn) [H1308, N-(2-methylisoindolin-5-yl)-4-(3-(1-phenylethyl)ureido) benzenesulfonamide] | 0.0235 | > 30 | 49.4 | 0.0312 | 38.5 |
| C[C@H](NC(=O)Nc1ccc(S(=O)(=O)Cc2ccc3c(c2)CN(C)CC3)cc1)c1ccccc1 [H1311, (S)-1-(4-(((2-methyl-1,2,3,4-tetrahydroisoquinolin-7-yl)methyl)sulfonyl)phenyl)-3-(1-phenylethyl)urea] | 0.108 | > 30 | 95.9 | 0.0846 | 123.8 |
| CN1Cc2ccc(CS(=O)(=O)c3ccc(NC(=O)NC4CCCc5ccccc54)cc3)cc2C1 (stereo not drawn) [H1312, 1-(4-(((2-methylisoindolin-5-yl)methyl)sulfonyl)phenyl)-3-(1,2,3,4-tetrahydronaphthalen-1-yl)urea] | 0.069 | > 30 | 93.5 | 0.0858 | 117.5 |
| CC(NC(=O)Nc1ccc(S(=O)(=O)Cc2ccc3c(c2)CN(C)C3)cc1F)c1ccccc1 (stereo not drawn) [H1317, 1-(2-fluoro-4-(((2-methylisoindolin-5-yl)methyl)sulfonyl)phenyl)-3-(1-phenylethyl)urea] | 0.0484 | > 30 | 96.7 | 0.0182 | 102.8 |
| CC(NC(=O)Nc1ccc(S(=O)(=O)Cc2ccc3c(c2)CN(C2COC2)C3)cc1)c1ccccc1 (stereo not drawn) [H1319, 1-(4-(((2-(oxetan-3-yl)isoindolin-5-yl)methyl)sulfonyl)phenyl)-3-(1-phenylethyl)urea] | 0.041 | > 30 | 195.6 | 0.0125 | > 500 |
| CC(NC(=O)Nc1ccc(S(=O)(=O)Cc2cc3c(s2)CN(C)C3)cc1)c1ccccc1 (stereo not drawn) [H1321, 1-(4-(((5-methyl-5,6-dihydro-4H-thieno[2,3-c]pyrrol-2-yl)methyl)sulfonyl)phenyl)-3-(1-phenylethyl)urea] | 0.0475 | > 30 | 85.3 | 0.0232 | 81.9 |
| C[C@H](NC(=O)Nc1ccc(S(=O)(=O)Cc2ccc3c(c2)CCN(C)CC3)cc1)c1ccccc1 [H1322, (S)-1-(4-(((3-methyl-2,3,4,5-tetrahydro-1H-benzo [d]azepin-7-yl)methyl)sulfonyl)phenyl)-3-(1-phenylethyl)urea] | 0.112 | > 30 | 129 | 0.0815 | 171.1 |
| CC(NC(=O)Nc1ccc(S(=O)(=O)Cc2cnc3c(c2)CN(C)C3)cc1)c1ccccc1 (stereo not drawn) [H1323, 1-(4-(((6-methyl-6,7-dihydro-5H-pyrrolo[3,4-b]pyridin-3-yl)methyl)sulfonyl)phenyl)-3-(1-phenylethyl)urea] | 0.243 | > 30 | 84.1 | 0.102 | 58.5 |
| COc1cccc(C(C)NC(=O)Nc2ccc(S(=O)(=O)Cc3ccc4c(c3)CN(C)C4)cc2)c1 (stereo not drawn) [H1326, 1-(1-(3-methoxyphenyl)ethyl)-3-(4-(((2-methylisoindolin-5-yl)methyl)sulfonyl)phenyl)urea] | 0.0098 | > 30 | 129.5 | 0.0069 | 60.5 |
| COc1cccc(C(C)NC(=O)Nc2ccc(S(=O)(=O)Cc3ccc4c(c3)CN(C)C4)cc2)c1 (stereo not drawn) [H1327, 1-(1-(3-methoxyphenyl)ethyl)-3-(4-(((2-methylisoindolin-5-yl)methyl)sulfonyl)phenyl)urea] | 0.0056 | > 30 | 165.3 | 0.0055 | 144.8 |
| CC(NC(=O)Nc1ccc(S(=O)(=O)Nc2ccc3c(c2)CCN(C)C3)cc1)c1ccccc1Cl (stereo not drawn) [H1334, 4-(3-(1-(2-chlorophenyl)ethyl)ureido)-N-(2-methyl-1,2,3,4-tetrahydroisoquinolin-6-yl)benzenesulfonamide] | 0.00918 | > 30 | 109.8 | 0.0082 | 97.9 |
| C[C@@H](NC(=O)Nc1ccc(S(=O)(=O)Nc2ccc3c(c2)CN(C)C3)cc1)c1ccccc1 [H1337, (R)-N-(2-methylisoindolin-5-yl)-4-(3-(1-phenylethyl)ureido) benzenesulfonamide] | 0.0241 | > 30 | 58.6 | 0.0105 | 39.2 |
| COCCN1Cc2ccc(CS(=O)(=O)c3ccc(NC(=O)NC(C)c4ccccc4)cc3)cc2C1 (stereo not drawn) [H1338, 1-(4-(((2-(2-methoxyethyl)isoindolin-5-yl)methyl)sulfonyl)phenyl)-3-(1-phenylethyl)urea] | 0.0076 | > 30 | 106.9 | 0.0065 | 242.1 |
| CC(NC(=O)Nc1ccc(S(=O)(=O)Cc2ccc3c(c2)CN(C2CCOC2)C3)cc1)c1ccccc1.O=C(O)C(F)(F)F (stereo not drawn) [H1340, 1-(1-phenylethyl)-3-(4-(((2-(tetrahydrofuran-3-yl)isoindolin-5-yl)methyl)sulfonyl)phenyl)urea] | 0.0047 | > 30 | 282.4 | 0.0033 | > 500 |
| CC(NC(=O)Nc1ccc(S(=O)(=O)Cc2ccc3c(c2)CCN(C)C3)cc1)c1ccccc1F (stereo not drawn) [H1342, 1-(1-(2-fluorophenyl)ethyl)-3-(4-(((2-methyl-1,2,3,4-tetrahydroisoquinolin-6-yl)methyl)sulfonyl)phenyl)urea] | 0.0174 | > 30 | 80.1 | 0.0079 | 118.4 |
| C[C@@H](NC(=O)Nc1ccc(S(=O)(=O)Cc2ccc3c(c2)CCN(C)C3)cc1)c1cccc(Cl)c1Cl [H1343, (R)-1-(1-(2,3-dichlorophenyl)ethyl)-3-(4-(((2-methyl-1,2,3,4-tetrahydroisoquinolin-6-yl)methyl)sulfonyl)phenyl)urea] | 0.0052 | > 30 | 71.9 | 0.0021 | 252.4 |
| CC(NC(=O)Nc1ccc(S(=O)(=O)Cc2ccc3c(c2)CCN(C)C3)cc1)c1ccccc1Cl (stereo not drawn) [H1344, 1-(1-(2-chlorophenyl)ethyl)-3-(4-(((2-methyl-1,2,3,4-tetrahydroisoquinolin-6-yl)methyl)sulfonyl)phenyl)urea] | 0.0044 | > 30 | 53.5 | 0.0041 | 115.7 |
| CC(NC(=O)Nc1ccc(S(=O)(=O)Cc2ccc3c(c2)CCN(C)C3)cc1)c1cccc(F)c1F (stereo not drawn) [H1345, 1-(1-(2,3-difluorophenyl)ethyl)-3-(4-(((2-methyl-1,2,3,4-tetrahydroisoquinolin-6-yl)methyl)sulfonyl)phenyl)urea] | 0.0052 | > 30 | 86.5 | 0.0042 | 166.2 |
| CC(NC(=O)Nc1ccc(S(=O)(=O)Nc2ccc3c(c2)CCN(C)C3)cc1)c1cccc(F)c1F (stereo not drawn) [H1346, 4-(3-(1-(2,3-difluorophenyl)ethyl)ureido)-N-(2-methyl-1,2,3,4-tetrahydroisoquinolin-6-yl)benzenesulfonamide] | 0.0191 | > 30 | 72.9 | 0.00698 | 69.3 |
| CC(NC(=O)Nc1ccc(S(=O)(=O)Nc2ccc3c(c2)CCN(C)C3)cc1)c1ccccc1F (stereo not drawn) [H1347, 4-(3-(1-(2-fluorophenyl)ethyl)ureido)-N-(2-methyl-1,2,3,4-tetrahydroisoquinolin-6-yl)benzenesulfonamide] | 0.0262 | > 30 | 59.9 | 0.00795 | 58.1 |
| C[C@@H](NC(=O)Nc1ccc(S(=O)(=O)Cc2cc(F)c3c(c2)CN(C)C3)cc1)c1ccccc1 [H1355, (R)-1-(4-(((7-fluoro-2-methylisoindolin-5-yl)methyl)sulfonyl)phenyl)-3-(1-phenylethyl)urea] | 0.041 | > 30 | 153.5 | 0.0129 | 304.3 |
